Laboratory results reported in patent US9060516B2, “Method for controlling aquatic weeds” (BASF SE, priority 2005, dated 2015).

Tests used:
Hydrilla verticillata = experiment: Greenhouse test, static exposure of Hydrilla verticillata to quinclorac in water columns; format: in vivo; conditions: for Hydrilla Shoot Length: static exposure, 11 weeks after treatment, control 30.4 cm, LSD at 0.05 = 11.5
Protocol: To begin the experiment, PVC cylinders were filled and maintained with a volume of 4000 ml of dichlorinated water that was maintained at room temperature (24° C.). To each cylinder, an established hydrilla plant (potted in sand mixture) was transferred into the water column. Hydrilla plants were selected for uniformity and length of shoot growth (approx 15 cm). Plants were allowed to equilibrate in the columns for 24 hrs prior to herbicide treatment. Experimental treatments included an untreated control, and quinclorac at 50, 250 and 500 ppb of actual acid equivalent of herbicide. Treatments were applied to water columns by the use of a pipette. Amount of herbicide applied was based on the total volume of the cylinders (4000 ml). After initial herbicide treatment, the water columns were gently stirred to ensure uniform distribution. Treatments were arranged as a completely random design with 3 replications. Each cylinder was considered the experimental unit. Greenhouse conditions were maintained at 24/18° C. (day/night) cycle for the duration of the experiment. Natural day length was supplemented with halogen lighting to provide a 14 hr photoperiod. Water level in the cylinders was periodically checked and maintained at the 4000 ml level for the duration of the study. After 11 weeks of exposure, hydrilla shoot lengths were measured to ascertain herbicide effects.

[1] = system: Mixed population of submersed weed species: Hydrilla verticillata and Egeria densa; experiment: Greenhouse test, static exposure of a mixed population of submersed weed species to quinmerac and quinclorac; format: in vivo; conditions: for Shoot Fresh / Shoot Length: static exposure, 12 weeks after treatment; for Shoot Fresh: control 6.8 g, LSD at 0.05 = 3.1; for Shoot Length: control 37.3 cm, LSD at 0.05 = 17.4
Protocol: To begin the experiment, containers were filled and maintained with a volume of 4000 ml of distilled water that was maintained at room temperature (24° C.). To each container, established weed plants (potted in sand mixture) were transferred into the water column. Plants were selected for uniformity and length of shoot growth (approx 15 cm). Plants were allowed to equilibrate in the containers for 24 hrs prior to herbicide treatment. Experimental treatments included an untreated control, quinmerac at 100, 250, and 500 ppb, as well as, quinclorac at 250 ppb of actual acid equivalent of herbicide. Treatments were applied to water columns by the use of a pipette. Amount of herbicide applied was based on the total volume of the containers (4000 ml). After initial herbicide treatment, the water columns were gently stirred to ensure uniform distribution. Treatments were arranged as a completely random design with 3 replications. Each container was considered the experimental unit. Greenhouse conditions were maintained at 24/18° C. (day/night) cycle for the duration of the experiment. Natural day length was supplemented with halogen lighting to provide a 14 hr photoperiod. Water level in the containers was periodically checked and maintained at the 4000 ml level for the duration of the study. After 12 weeks of exposure, weed shoot length and fresh weights were measured to ascertain herbicide effects.

O=C(O)c1c(Cl)ccc2cc(Cl)cnc12 [Quinclorac, 3,7-dichloroquinoline-8-carboxylic acid]
Hydrilla Shoot Length (Hydrilla verticillata; 50 ppb acid equivalent): 15.0 cm
Hydrilla Shoot Length (Hydrilla verticillata; 250 ppb acid equivalent): 8.9 cm
Hydrilla Shoot Length (Hydrilla verticillata; 500 ppb acid equivalent): 6.5 cm
Effect on the growth of hydrilla (Hydrilla verticillata; after the 11 week exposure period, 50-500 ppb): significant effect on the growth of hydrilla
Visual symptomology (Hydrilla verticillata; after the 11 week exposure period, intensity tended to be rate responsive): reduction in plant vigour and auxinic-like twisting of leaf tissue
Shoot Fresh ([1]; 250 ppb acid equivalent): 1.5 grams
Shoot Length ([1]; 250 ppb acid equivalent): 15.7 cm
Reduction in both shoot length and fresh weight vs. the control ([1]; 250 ppb, 12 weeks of exposure): Significant reduction

Cc1cnc2c(C(=O)O)c(Cl)ccc2c1 [Quinmerac, 7-chloro-3-methylquinoline-8-carboxylic acid]
Visual symptomology ([1]; 12 weeks of exposure, intensity tended to be rate responsive): reduction in plant vigour and auxinic-like twisting of leaf tissue
Shoot Fresh ([1]; 100 ppb acid equivalent): 5.1 grams
Shoot Length ([1]; 100 ppb acid equivalent): 15.0 cm
Shoot Fresh ([1]; 250 ppb acid equivalent): 0.5 grams
Shoot Length ([1]; 250 ppb acid equivalent): 8.9 cm
Reduction in both shoot length and fresh weight vs. the control ([1]; 250 ppb, 12 weeks of exposure): Significant reduction
Shoot Fresh ([1]; 500 ppb acid equivalent): 0.1 grams
Shoot Length ([1]; 500 ppb acid equivalent): 6.5 cm
Reduction in both shoot length and fresh weight vs. the control ([1]; 500 ppb, 12 weeks of exposure): Significant reduction
